IC90 data for 23 molecules are collected here from patent publication US20230203043A1, “NOVEL IMIDAZOPYRAZINE DERIVATIVES” (Hoffmann-La Roche Inc., priority 2020, published 2023).

Where a name gives a salt, the structure may show the parent alone.

For one assay, the system named is Acinetobacter baumannii ATCC17961. Kind of assay: Antimicrobial susceptibility testing: 90% growth inhibitory concentration (IC90) determination in Iso-Sensitest broth, OD600 growth. It is filed as cell-based. To be noted: Acinetobacter baumannii, ATCC17961, 16 h, read-out: A. baumannii ATCC 17961 IC90 (uM), strain ATCC 17961, OD600 growth over 16 h. A digest of the protocol:
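Each strain, at about 5×10^(5) CFU/ml, was incubated with twofold dilutions of compound at 35±2° C for 16 h, and IC90 was calculated from kinetic optical density measured at 600 nm during logarithmic growth.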
Take `CCc1cc(Nc2nccn3c(-c4cn(CC#N)nc4C(F)(F)F)cnc23)ccc1C(=O)NCCCNC(=O)[C@@H](C)N` [Example 626, (R)-N-(3-(2-aminopropanamido)propyl)-4-((3-(1-(cyanomethyl)-3-(trifluoromethyl)-1H-pyrazol-4-yl)imidazo[1,2-a]pyrazin-8-yl)amino)-2-ethylbenzamide formate]: the IC90 came out at 0.233 µM. The same measure, in the same setting: under `Cc1cc(Nc2nccn3c(-c4cn(C)nc4C(F)(F)F)cnc23)ccc1C(=O)N1CCN(C(=O)[C@H]2CCNC[C@H]2O)CC1` [Example 475, formic acid; [4-[(3S,4S)-3-hydroxypiperidine-4-carbonyl]piperazin-1-yl]-[2-methyl-4-[[3-[1-methyl-3-(trifluoromethyl)pyrazol-4-yl]imidazo[1,2-a]pyrazin-8-yl]amino]phenyl]methanone] stands 1.64 µM; under `N=C(N)NC[C@H](N)C(=O)NCCCNC(=O)c1ccc(Nc2nccn3c(-c4c[nH]nc4C(F)(F)F)cnc23)cc1Cl` [Example 211, N-[3-[[(2S)-2-amino-3-carbamimidamidopropanoyl]amino]propyl]-2-chloro-4-[[3-[3-(trifluoromethyl)-1H-pyrazol-4-yl]imidazo[1,2-a]pyrazin-8-yl]amino]benzamide formate], 0.284 µM; under `CNCC1(O)CCN(C(=O)c2ccc(Nc3nccn4c(-c5cn(CC#N)nc5C(F)(F)F)cnc34)cc2Cl)CC1` [Example 14, 2-[4-[8-[3-chloro-4-[4-hydroxy-4-(methylaminomethyl)piperidine-1-carbonyl]anilino]imidazo[1,2-a]pyrazin-3-yl]-3-(trifluoromethyl)pyrazol-1-yl]acetonitrile formate], 0.141 µM. For the molecule `O=C(c1ccc(Nc2nccn3c(-c4c[nH]nc4C(F)(F)F)cnc23)cc1Cl)N1CCN(C(=O)[C@@H]2C[C@@H](O)CN2)CC1` [Example 448, [2-chloro-4-[[3-[3-(trifluoromethyl)-1H-pyrazol-4-yl]imidazo[1,2-a]pyrazin-8-yl]amino]phenyl]-[4-[(2S,4R)-4-hydroxypyrrolidine-2-carbonyl]piperazin-1-yl]methanone formate], the IC90 is 0.235 µM.

On to `O=C(c1ccc(Nc2nccn3c(-c4cn(Cc5cncnc5)nc4C(F)(F)F)cnc23)cc1Cl)N1CCNCC1` [Example 182, [2-chloro-4-[[3-[1-(pyrimidin-5-ylmethyl)-3-(trifluoromethyl)pyrazol-4-yl]imidazo[1,2-a]pyrazin-8-yl]amino]phenyl]-piperazin-1-ylmethanone formate], for which the IC90 is 0.368 µM. The same measure, in the same setting: the same measure for `NCCNC(=O)NCCNC(=O)c1ccc(Nc2nccn3c(-c4c[nH]nc4C(F)(F)F)cnc23)cc1Cl` [Example 222, N-[2-(2-aminoethylcarbamoylamino)ethyl]-2-chloro-4-[[3-[3-(trifluoromethyl)-1H-pyrazol-4-yl]imidazo[1,2-a]pyrazin-8-yl]amino]benzamide formate]: 1.09 µM; for `Cc1cc(Nc2nccn3c(-c4cn(CC#N)nc4C(F)(F)F)cnc23)ccc1C(=O)N1CCN(C(=O)[C@@H]2C[C@@H](O)CN2)CC1` [Example 422, formic acid; 2-[4-[8-[4-[4-[(2S,4R)-4-hydroxypyrrolidine-2-carbonyl]piperazine-1-carbonyl]-3-methylanilino]imidazo[1,2-a]pyrazin-3-yl]-3-(trifluoromethyl)pyrazol-1-yl]acetonitrile]: 0.63 µM; for `NCCNC(=O)CNC(=O)c1ccc(Nc2nccn3c(-c4cn(CC(F)F)nc4C(F)(F)F)cnc23)cc1Cl` [Example 117, N-[2-(2-aminoethylamino)-2-oxoethyl]-2-chloro-4-[[3-[1-(2,2-difluoroethyl)-3-(trifluoromethyl)pyrazol-4-yl]imidazo[1,2-a]pyrazin-8-yl]amino]benzamide formate]: 0.338 µM.

Regarding `C[C@@H](NC(=O)c1ccc(Nc2nccn3c(-c4c[nH]nc4C(F)(F)F)cnc23)cc1Cl)C(=O)N1CCNCC1` [Example 91, 2-chloro-N-[(2R)-1-oxo-1-piperazin-1-ylpropan-2-yl]-4-[[3-[3-(trifluoromethyl)-1H-pyrazol-4-yl]imidazo[1,2-a]pyrazin-8-yl]amino]benzamide formate], the IC90 amounted to 0.645 µM.

As to `CCc1cc(Nc2nccn3c(-c4cn(CC(F)F)nc4C(F)(F)F)cnc23)ccc1C(=O)NCC1CC1N` (centres unmarked) [Example 641, N-((2-aminocyclopropyl)methyl)-4-((3-(1-(2,2-difluoroethyl)-3-(trifluoromethyl)-1H-pyrazol-4-yl)imidazo[1,2-a]pyrazin-8-yl)amino)-2-ethylbenzamide formate], the IC90 is 0.231 µM. On the same count and under the same terms, the same measure for `NCCCC(=O)N1CCN(C(=O)c2ccc(Nc3nccn4c(-c5c[nH]nc5C(F)(F)F)cnc34)cc2Cl)CC1` [Example 399, 4-amino-1-[4-[2-chloro-4-[[3-[3-(trifluoromethyl)-1H-pyrazol-4-yl]imidazo[1,2-a]pyrazin-8-yl]amino]benzoyl]piperazin-1-yl]butan-1-one formate]: 0.214 µM.

The assay is the same for the next values; noted with them: Acinetobacter baumannii, ATCC17961, 16 h, strain ATCC 17961, OD600 growth over 16 h, read-out: A. baumannii ATCC 17961 IC90.
For `CCc1cc(Nc2nccn3c(-c4cn(COC)nc4C(F)F)cnc23)ccc1C(=O)N1CCN(C(=O)CN)CC1` [Example 771, 2-amino-1-(4-(4-((3-(3-(difluoromethyl)-1-(methoxymethyl)-1H-pyrazol-4-yl)imidazo[1,2-a]pyrazin-8-yl)amino)-2-ethylbenzoyl)piperazin-1-yl)ethan-1-one], the IC90 came to 0.953 µM. The same measure, in the same setting: under `Cc1cc(Nc2nccn3c(-c4c[nH]nc4C(F)(F)F)cnc23)ccc1C(=O)N1CCN(C(=O)[C@@H]2CNCC[C@@H]2O)CC1` (racemic) [Example 468, [2-methyl-4-[[3-[3-(trifluoromethyl)-1H-pyrazol-4-yl]imidazo[1,2-a]pyrazin-8-yl]amino]phenyl]-[4-[rac-(3R,4S)-4-hydroxypiperidine-3-carbonyl]piperazin-1-yl]methanone hydrochloride] stands 1.43 µM. Still for that read-out and setting: the same measure for `CCc1cc(Nc2nccn3c(-c4c[nH]nc4C(F)(F)F)cnc23)ccc1C(=O)NCCCNCCCCNCCCN` [Example 270, N-[3-[4-(3-aminopropylamino)butylamino]propyl]-2-ethyl-4-[[3-[3-(trifluoromethyl)-1H-pyrazol-4-yl]imidazo[1,2-a]pyrazin-8-yl]amino]benzamide]: 2.66 µM; for `CCc1cc(Nc2nccn3c(-c4cn(CC#N)nc4C(F)(F)F)cnc23)ccc1C(=O)N[C@H](C)CNC(=O)[C@@H]1CCCN1` [Example 654, (S)-N-((R)-2-(4-((3-(1-(cyanomethyl)-3-(trifluoromethyl)-1H-pyrazol-4-yl)imidazo[1,2-a]pyrazin-8-yl)amino)-2-ethylbenzamido)propyl) pyrrolidine-2-carboxamide]: 0.263 µM; for `C#CCNC(=O)c1c(C)cc(Nc2nccn3c(-c4cn(CC(F)F)nc4C(F)(F)F)cnc23)cc1F` [Example 37, 4-[[3-[1-(2,2-difluoroethyl)-3-(trifluoromethyl)pyrazol-4-yl]imidazo[1,2-a]pyrazin-8-yl]amino]-2-fluoro-6-methyl-N-prop-2-ynylbenzamide]: 0.239 µM. As for `CCc1cc(Nc2nccn3c(-c4cn(CC#N)nc4C(F)(F)F)cnc23)ccc1C(=O)NCCNC(=O)[C@H]1C[C@@H](N)C1` [Example 498, cis-N-(2-((1s,3s)-3-aminocyclobutane-1-carboxamido)ethyl)-4-((3-(1-(cyanomethyl)-3-(trifluoromethyl)-1H-pyrazol-4-yl)imidazo[1,2-a]pyrazin-8-yl)amino)-2-ethylbenzamide formate], the IC90 came out at 0.193 µM. The same measure, in the same setting: the same measure for `CCc1cc(Nc2nccn3c(-c4cn(CCOC(F)(F)F)nc4C(F)(F)F)cnc23)ccc1C(=O)NCCOCCN` [Example 622, N-(2-(2-aminoethoxy)ethyl)-2-ethyl-4-((3-(1-(2-(trifluoromethoxy)ethyl)-3-(trifluoromethyl)-1H-pyrazol-4-yl)imidazo[1,2-a]pyrazin-8-yl)amino)benzamide]: 0.148 µM. Still for that read-out and setting: the same measure for `CCc1cc(Nc2nccn3c(-c4cn(CC(F)F)nc4C(F)F)cnc23)ccc1C(=O)N1CCN(C(=O)[C@@H]2C[C@@H](O)CN2)CC1` [Example 786, (4-(4-((3-(1-(2,2-difluoroethyl)-3-(difluoromethyl)-1H-pyrazol-4-yl)imidazo[1,2-a]pyrazin-8-yl)amino)-2-ethylbenzoyl)piperazin-1-yl)((2S,4R)-4-hydroxypyrrolidin-2-yl)methanone]: 1.43 µM; for `Cc1cc(Nc2nccn3c(-c4cn(CC(F)F)nc4C(F)(F)F)cnc23)cc(F)c1C(=O)N1CCN(C(=O)[C@@H]2C[C@@H](O)CN2)CC1` [Example 698, (4-(4-((3-(1-(2,2-difluoroethyl)-3-(trifluoromethyl)-1H-pyrazol-4-yl)imidazo[1,2-a]pyrazin-8-yl)amino)-2-fluoro-6-methylbenzoyl)piperazin-1-yl)((2S,4R)-4-hydroxypyrrolidin-2-yl)methanone]: 0.374 µM; for `C#CCn1cc(-c2cnc3c(Nc4ccc(C(=O)NC)c(CC)c4)nccn23)c(C(F)(F)F)n1` [Example 335, 2-ethyl-N-methyl-4-[[3-[1-prop-2-ynyl-3-(trifluoromethyl)pyrazol-4-yl]imidazo[1,2-a]pyrazin-8-yl]amino]benzamide]: 0.148 µM.

Staying with this assay, now noted: strain ATCC 17961, OD600 growth over 16 h, read-out: A. baumannii ATCC 17961 IC90.
`Cc1cc(Nc2nccn3c(-c4c[nH]nc4C(F)(F)F)cnc23)ccc1C(=O)N1CCN(C(=O)N[C@H]2CNC[C@@H]2O)CC1` [Example 458, formic acid, N-[(3S,4S)-4-hydroxyppyrrolidin-3-yl]-4-[2-methyl-4-[[3-[3-(trifluoromethyl)-1H-pyrazol-4-yl]imidazo[1,2-a]pyrazin-8-yl]amino]benzoyl]piperazine-1-carboxamide]: the IC90 worked out at 0.551 µM.
